# Data published in patent publication US11696913B2, “Prolonged ectoparasite-controlling agent for animal” (MITSUI CHEMICALS AGRO, INC., priority 2017, dated 2023).
# How the values were obtained:
# Amblyomma americanum = experiment: In vitro contact test with hard ticks (Amblyomma americanum nymphs); conditions: read-out: acaricidal activity; for pest or weed control at 0.2 µg/cm2, 0.2 µg/cm2: dose 0.2 μg/cm^2, 48 h; for pest or weed control at 1 µg/cm2, 1 µg/cm2: dose 1 μg/cm^2, 48 h
# How it was run: (§1)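 Acaricidal activity = % ticks dead or moribund after 48 h contact with acetone-deposited compound on vial walls (e.g., 900 ppm solution → 5 μg/cm^2). Ambient conditions for R. sanguineus, 21° C./85% rel. hum. for other species; heat challenge at 45-50° C. separated climbers from moribund ticks.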
# Laodelphax striatellus = experiment: Insecticidal testing against small brown planthopper; assay type: in vivo; conditions: 144 h, concentration 100 ppm, sprayed rice seedlings, after 6 days, read-out: pesticidal rate
# How it was run: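 Acetone solution of compound at a set concentration sprayed onto rice seedlings, air-dried, then exposed to 10 planthoppers (one group). Held at 25° C; survival rate recorded after 6 days.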
# Ctenocephalides felis [1] = experiment: Ctenocephalides felis in-vitro feeding test with fleas (CTECFE oral); conditions: 48 hours, read-out: insecticidal feeding activity; for pest or weed control at 0.032 ppm: dose 0.032 ppm in citrated cattle blood; for pest or weed control at 0.16 ppm: dose 0.16 ppm in citrated cattle blood; for pest or weed control at 0.8 ppm: dose 0.8 ppm in citrated cattle blood; for pest or weed control at 4 ppm: dose 4 ppm in citrated cattle blood
# How it was run: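 Scored as percent fleas killed (0–100%) 48 hours after feeding began. Compound, dissolved in DMSO and diluted into citrated cattle blood, was offered via a parafilm membrane to roughly 20 adult male and female C. felis at about 37° C.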
# Ctenocephalides felis [2] = experiment: In vitro contact test with fleas; conditions: read-out: insecticidal activity; for pest or weed control at 0.04 µg/cm2, 0.04 µg/cm2: dose 0.04 μg/cm^2, dead or moribund fleas after 48 h; for pest or weed control at 0.2 µg/cm2, 0.2 µg/cm2: dose 0.2 μg/cm^2, dead or moribund fleas after 48 h; for pest or weed control at 1 µg/cm2, 1 µg/cm2: dose 1 μg/cm^2, dead or moribund fleas after 48 h
# How it was run: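 Activity is the percentage of fleas dead or moribund at 48 h, judged by immobility or uncoordinated movement after tapping. Tubes were coated by evaporating acetone solutions (900 ppm gives 5 μg/cm^2), then held 5-10 adult fleas of both sexes at room temperature and ambient humidity.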
# Ixodes ricinus = experiment: In vitro contact test with adult hard ticks (Ixodes ricinus); conditions: read-out: acaricidal activity; for pest or weed control at 0.2 µg/cm2, 0.2 µg/cm2: dose 0.2 μg/cm^2, 48 h; for pest or weed control at 1 µg/cm2, 1 µg/cm2: dose 1 μg/cm^2, 48 h; for pest or weed control at 5 µg/cm2, 5 µg/cm2: dose 5 μg/cm^2, 48 h
# How it was run: as §1
# Plutella xylostella = experiment: Insecticidal testing against diamondback moth; assay type: in vivo; conditions: foliar, 144 h, concentration 100 ppm, cabbage leaf dip, third-stage larvae, after 6 days, read-out: pesticidal rate
# Excerpt: Insecticidal Testing Against Diamondback Moth (Plutella xylostella)
# [3] = test system: Rhipicephalus (Boophilus) microplus; experiment: In vitro injection test with Rhipicephalus (Boophilus) microplus (BOOPMI Inj); conditions: 168 h, laid fertile eggs after 7 days, read-out: acaricidal activity; for pest or weed control at 32 ng: dose 0.032 μg/animal injected; for pest or weed control at 0.00016 mg: dose 0.16 μg/animal injected; for pest or weed control at 0.0008 mg: dose 0.8 μg/animal injected
# How it was run: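 Five engorged adult females each get a 1 μl abdominal injection of compound dissolved and diluted in DMSO. Kept 7 days at 28° C./85% rel. hum.; percent activity rates egg laying and egg fertility (0% all fertile, 100% none laid or infertile).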
# Dermacentor variabilis = experiment: In vitro contact test with adult hard ticks (Dermacentor variabilis); conditions: read-out: acaricidal activity; for pest or weed control at 0.04 µg/cm2, 0.04 µg/cm2: dose 0.04 μg/cm^2, 48 h; for pest or weed control at 0.2 µg/cm2, 0.2 µg/cm2: dose 0.2 μg/cm^2, 48 h; for pest or weed control at 1 µg/cm2, 1 µg/cm2: dose 1 μg/cm^2, 48 h
# How it was run: as §1
# Rhipicephalus sanguineus = experiment: In vitro contact test with adult hard ticks (Rhipicephalus sanguineus); conditions: read-out: acaricidal activity; for pest or weed control at 0.2 µg/cm2, 0.2 µg/cm2: dose 0.2 μg/cm^2, 48 h; for pest or weed control at 1 µg/cm2, 1 µg/cm2: dose 1 μg/cm^2, 48 h
# How it was run: as §1
# Spodoptera litura = experiment: Insecticidal testing against common cutworm; assay type: in vivo; conditions: foliar, 144 h, concentration 100 ppm, cabbage leaf dip, second-stage larvae, after 6 days, read-out: pesticidal rate
# Excerpt: Insecticidal Testing Against Common Cutworm (Spodoptera litura)
Compound,"pest or weed control at 1 µg/cm2, 1 µg/cm2 (Amblyomma americanum) [%]",pest or weed control at 100 ppm (Laodelphax striatellus) [%],pest or weed control at 0.032 ppm (Ctenocephalides felis [1]) [%],pest or weed control at 0.16 ppm (Ctenocephalides felis [1]) [%],pest or weed control at 0.8 ppm (Ctenocephalides felis [1]) [%],pest or weed control at 4 ppm (Ctenocephalides felis [1]) [%],"pest or weed control at 0.04 µg/cm2, 0.04 µg/cm2 (Ctenocephalides felis [2]) [%]","pest or weed control at 0.2 µg/cm2, 0.2 µg/cm2 (Ctenocephalides felis [2]) [%]","pest or weed control at 1 µg/cm2, 1 µg/cm2 (Ctenocephalides felis [2]) [%]","pest or weed control at 0.2 µg/cm2, 0.2 µg/cm2 (Ixodes ricinus) [%]","pest or weed control at 1 µg/cm2, 1 µg/cm2 (Ixodes ricinus) [%]","pest or weed control at 5 µg/cm2, 5 µg/cm2 (Ixodes ricinus) [%]",pest or weed control at 100 ppm (Plutella xylostella) [%],pest or weed control at 32 ng [3] [%],pest or weed control at 0.00016 mg [3] [%],pest or weed control at 0.0008 mg [3] [%],"pest or weed control at 0.2 µg/cm2, 0.2 µg/cm2 (Dermacentor variabilis) [%]","pest or weed control at 1 µg/cm2, 1 µg/cm2 (Dermacentor variabilis) [%]","pest or weed control at 0.2 µg/cm2, 0.2 µg/cm2 (Rhipicephalus sanguineus) [%]","pest or weed control at 1 µg/cm2, 1 µg/cm2 (Rhipicephalus sanguineus) [%]",other results
O=C(Nc1cccc(C(=O)Nc2c(I)cc(C(F)(C(F)(F)F)C(F)(F)F)cc2C(F)(F)F)c1F)c1ccc(C(F)F)nc1 [Compound 85],90,≥ 70,95,95,95,95,95,95,95,90,90,90,≥ 70,100,100,100,90,90,90,90,"pest or weed control at 0.2 µg/cm2, 0.2 µg/cm2 (Amblyomma americanum): 90%; pest or weed control at 0.0064 ppm (Ctenocephalides felis [1]; dose 0.0064 ppm in citrated cattle blood): 95%; pest or weed control at 0.04 µg/cm2, 0.04 µg/cm2 (Dermacentor variabilis): 90%; pest or weed control at 100 ppm (Spodoptera litura): ≥ 70%"
O=C(Nc1cccc(C(=O)Nc2c(I)cc(C(F)(C(F)(F)F)C(F)(F)F)cc2C(F)(F)F)c1F)c1ccc(F)c(F)c1 [Compound 86],90,≥ 70,95,95,95,95,95,95,95,90,90,90,≥ 70,100,100,100,90,90,90,90,"pest or weed control at 0.04 µg/cm2, 0.04 µg/cm2 (Amblyomma americanum; dose 0.04 μg/cm^2, 48 h): 90%; pest or weed control at 0.2 µg/cm2, 0.2 µg/cm2 (Amblyomma americanum): 90%; pest or weed control at 0.04 µg/cm2, 0.04 µg/cm2 (Dermacentor variabilis): 90%; pest or weed control at 0.04 µg/cm2, 0.04 µg/cm2 (Rhipicephalus sanguineus; dose 0.04 μg/cm^2, 48 h): 90%; pest or weed control at 100 ppm (Spodoptera litura): ≥ 70%"
CN(C(=O)c1ccc(F)cc1)c1cccc(C(=O)Nc2c(Br)cc(C(F)(C(F)(F)F)C(F)(F)F)cc2OC(F)F)c1F [Compound 89],90,≥ 70,95,95,95,95,95,95,95,90,90,90,≥ 70,100,100,100,90,90,90,90,pest or weed control at 6.4 ng ([3]; dose 0.0064 μg/animal injected): 100%; pest or weed control at 100 ppm (Spodoptera litura): ≥ 70%
